Article PMC6874683, “Pyrrothiogatain acts as an inhibitor of GATA family proteins and inhibits Th2 cell differentiation in vitro” (Scientific Reports, 2019)

How the values were obtained:
[1] = biological target: T1, GATA3 (Homo sapiens, UniProt P23771); assay: Electrophoretic mobility shift assay (EMSA), GATA3; assay type: binding; settings: 50 to 100 µM
T1 construct: we synthesized the recombinant full-length GATA3 protein with an N-terminal FLAG tag using the wheat cell-free system; made in house; host or cells: wheat cell-free protein synthesis system (WEPRO1240 kit)
T1 sequence (P23771 whole entry, species assumed): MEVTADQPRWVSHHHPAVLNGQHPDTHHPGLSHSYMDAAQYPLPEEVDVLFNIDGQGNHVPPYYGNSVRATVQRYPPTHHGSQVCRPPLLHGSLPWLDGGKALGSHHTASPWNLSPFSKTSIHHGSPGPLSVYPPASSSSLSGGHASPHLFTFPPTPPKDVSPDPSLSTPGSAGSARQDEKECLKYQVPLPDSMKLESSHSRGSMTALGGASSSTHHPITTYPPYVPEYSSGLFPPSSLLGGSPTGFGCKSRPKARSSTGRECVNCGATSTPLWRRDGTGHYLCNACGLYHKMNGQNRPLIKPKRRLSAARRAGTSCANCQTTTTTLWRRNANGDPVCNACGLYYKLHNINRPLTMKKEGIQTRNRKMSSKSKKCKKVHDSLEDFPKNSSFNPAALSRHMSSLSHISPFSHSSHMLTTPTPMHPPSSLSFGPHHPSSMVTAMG
Description: Electrophoretic mobility shift assays were performed as described previously. In brief, four GATA family proteins (GATA2 to GATA5) were incubated with a ^32P-labelled GATA-binding DNA probe for 20 min at 4 °C in the presence or absence of pyrrothiogatain (0 to 100 µM). The DNA-protein complex was separated from free oligonucleotides on 4% polyacrylamide gels, and then, the ^32P-labelled DNA probes were detected using the Typhoon FLA 7000 (GE Healthcare).

[2] = system: Th2 cell differentiation; assay: Intracellular cytokine staining, naive CD4+ T cells under Th2 conditions; assay type: cell-based, mouse; settings: 30 and 80 µM, 5 days
Description: C57BL/6 mice were purchased from Clea (Clea Japan, Inc., Tokyo, Japan). Total CD4^+ T cells isolated from mouse spleen were prepared using a FITC anti-mouse CD4 antibody (Cat#100510, RM4–5, BioLegend) and anti-FITC-microbeads (Cat#130-097-050, Miltenyi Biotec). Naive CD4^+ T cells (CD44^low, CD62L^high) were prepared using a MojoSort Mouse CD4 T cell Isolation Kit (Cat#480033), BioLegend). Biotinylated anti-CD44 (Cat#103004, IM7) and anti-CD25 antibodies (Cat#102004, PC61) were purchased from BioLegend. CD4^+ T cells (7.5 × 10^5) were stimulated using immobilized anti-TCR-β mAb (3 µg/mL, H57–597, BioLegend) plus an anti-CD28 mAb (1.0 µg/mL, cat#40–0281, TONBO Biosciences) for 2 days, and then, the cells were further expanded under similar conditions for an additional 3 days. IL-2 conditions: IL-2 (10 ng/mL, Pepro Tech); Th2 conditions: IL-2 (10 ng/mL, Pepro Tech), IL-4 (1 ng/mL, Pepro Tech), and anti-IFN-γ mAb (2.5 µg/mL, cat#40–731, TONBO Biosciences). […]
The in vitro differentiated CD4^+ T cells were stimulated using an immobilized anti-TCR-β mAb (3 µg/ml, H57–597, BioLegend) for 6 h in the presence of monensin (2 µM). […] Flow cytometry was performed using a Gallios Flow Cytometer instrument (Beckman Coulter) and a FACS Caliber instrument (BD Biosciences) and the results were analysed using the FlowJo software program (Tree Star, Ashland, OR, USA).

[3] = system: GATA3 expression; assay: Immunoblot of GATA3, naive CD4+ T cells under Th2 conditions; assay type: cell-based, mouse; settings: 80 µM, 5 days
Description: Figure 5 Pyrrothiogatain inhibits Th2 cell differentiation and production of Th2 cytokines. (A) Intracellular staining of IL-5/IL-13, IL-4/IFN-γ, and IL-2/IFN-γ in naive CD4^+ T cells cultured under Th2 conditions in the presence or absence of pyrrothiogatain (30 and 80 µM) for five days. (B) Cytokine production induced in the pyrrothiogatain treated Th2 cells shown in panel (A) was determined by ELISA. (C) Quantitative RT-PCR analysis of the pyrrothiogatain-treated Th2 cells shown in panel (A). (D) Immunoblot analysis of GATA3 in naive CD4^+ T cells cultured under Th2 conditions in the presence or absence of pyrrothiogatain (80 µM) for 5 days. (E) Cytokine production from Th2 cells stimulated with immobilized anti-TCRβ mAb for 16 h in the presence or absence of pyrrothiogatain (0 to 100 µM). The amounts of IL-4, IL-5 and IL-13 in the culture supernatants were determined by ELSA. In (B), (C) and (E), all data are expressed as individual points of three independent experiments with error bars indicating standard deviation. […]

SMILES: Cc1ccc(C)n1-c1ccsc1C(=O)O [Pyrrothiogatain, 3-(2,5-dimethyl-1H-pyrrol-1-yl)thiophene-2-carboxylic acid]
- Intensity of the shifted bands generated by GATA3-DNA binding [1]: decreased
- Generation of IL-4-, IL-5-, and IL-13-producing Th2 cells [2]: repressed
- Expression of GATA3, protein level [3]: not influenced
